Test results: patent US20070021450A1, “Indanylamino uracils and their use as antioxidants and neuroprotectants” (priority 2004, published 2007)

What was measured:
EAE = assay: Treatment of EAE with TEMPOL (FIG. 1); format: in vivo, mice; conditions: Tempol 100 mg and 200 mg groups
From the text: The dosage of TEMPOL used here was […] higher than the dosages of compounds 6 and 7 below. The experiments were terminated arbitrarily at day 18 post-immunization. The course of EAE in different groups of animals varies. Consequently, recovery time is variable, typically by two or three days.

neutrophils = assay: PMA-induced oxidative burst in neutrophils (DCFH, FACS); format: cell-based; conditions: PMA 10 ng/ml 30 min, compared to ascorbic acid
Experimental: PMA-induced oxidative burst in neutrophils: The cells were activated with PMA (10 ng/ml) for 30 min and incubated with 2,7-dichlorodihydrofluorescin diacetate (DCFH), which, in the presence of O2 radicals and peroxynitrites, is converted to a fluorescent compound. The fluorescent cells are detected in a cell sorter (FACS).

[1] = Chemical chemiluminescence (without cells): Luminol+SIN-1+selenite+BSA; design: concentration or dose not given beside the values; conditions: compared to ascorbic acid
From the text: Luminescence was generated in vials containing the following compounds: Luminol+SIN-1(generator of NO radicals)+selenite+BSA. This reaction is inhibited by scavengers of peroxynitrites, as well as scavengers of NO and O2 free radicals.

human red blood cells = assay: Hypochlorite (HOCl) hemolysis of human red blood cells; format: cell-based; conditions: activity compared to ascorbic acid
Experimental: Hypochlorite (HOCl) hemolysis of human red blood cells. The reaction is based on the ability of O2 radicals to lyse red blood cells. Antioxidant compounds such as ascorbic acid and 4-hydroxy-2,2,6,6-tetramethyl-piperidine-1-oxyl (TEMPOL) prevent membrane damage in a dose dependent manner. All compounds were dissolved at a concentration of 5 mg/ml and aliquots were tested for their ability to prevent lysis.

[2] = tested on: EAE (PLP 139-151 challenge); assay: PLP induced experimental allergic encephalomyelitis (EAE) in SJL mice; format: in vivo; design: key to Mean maximal score / Mean score (group mean score): clinical score 0 = no signs to 6 = death; conditions: for effect on EAE, in words: 50 mg/kg/day po
Experimental: Female SJL mice (12 weeks) were inoculated with the encephalitogenic peptide of proteolipid protein (PLP 139-151) synthesized to a purity of 70% by Sigma (Israel). 150 μg of the peptide were emulsified in complete Freund's adjuvant (CFA) (Difco laboratories), supplemented with killed mycobacteria (5 mg/ml) and pertussis toxin (200 ng) (Sigma), given subcutaneously at day of inoculation only.
Mice were kept SPF conditions and given water and food ad libitum. Mice were daily observed for clinical signs from day 10 to day 18-21 post inoculation.
The clinical score used is as follows: 0—no clinical signs; 0.5—loss of right reflex; 1—distal limp tail; 2—complete limp tail; 3—ataxia; 4—early paralysis (one hind limb); 5—complete hind legs paralysis and moribund state; 6—death.
Compounds were dissolved in 2-hydroxypropyl beta cyclodextrin (40% water solution). Treatment started at day 1 post inoculation. The compounds (50 mg/kg) and vehicle were given orally by gavage every day until day 20 post inoculation.
Compounds 6 and 7 were given orally to mice challenged with PLP, at a dose of 50 mg/kg/day, p.o. The results are presented in Table 3a and in FIGS. 2 and 3. The effect of Compound 6 on all parameters of the disease was more pronounced as compared to the control group.

[3] = Oxidation potential by cyclic voltametry; format: physicochemical; conditions: for oxidation potential (cyclic voltametry), in words: pH 7.2
Experimental: (§1) Reaction with 1,1-diphenyl-2-picrylhydrazyl (DPPNH) is indicative of radical scavenging ability. The compounds were mixed with DPPNH (in equimolar amounts) and the consumption rate of DPPNH was measured. Compounds 3 and 4 reacted instantaneously, consuming 70% and 20% of DPPNH respectively (Table 2). The oxidation potential of the compounds was measured by cyclic voltametry.

[4] = Reaction with 1,1-diphenyl-2-picrylhydrazyl (DPPNH), radical scavenging; format: physicochemical; conditions: equimolar amounts; for DPPNH: radical scavenging, grades 0 to +++, key not given; for DPPNH consumed: reacted instantaneously
Experimental: as §1

[5] = tested on: EAE (PLP 139-151 challenge); assay: PLP induced experimental allergic encephalomyelitis (EAE) in SJL mice; format: in vivo; conditions: single dose daily, po
[6] = tested on: EAE (MSCH emulsion induction); assay: EAE in CSJL mice, acute model (MSCH/CFA induction); format: in vivo; conditions: for Mortality / Incidence: 30 days, CSJL mice; for Mean Duration: duration of disease; for % inhibition 3: inhibition of GMS vs control; for % inhibition 2: inhibition of MMS vs control; for % inhibition 1: inhibition of incidence vs control; for GMS value: mean group score; for MMS value: mean maximal score
[7] = Table 3b: 50 mg/kg, single dose daily, po
[8] = Table 3b: 50 mg/kg, single dose daily, po, only mice that develop disease
[9] = Table 3b: 12.5 mg/kg, single dose daily, po
[10] = Table 3b: 100 mg/kg, single dose daily, po
[11] = Table 3a: 50 mg/kg/day po, single dose daily, PLP challenge
[12] = 25.0 mg/kg × 2 per day (single dose on weekends), oral
[13] = Table 3a: 50 mg/kg/day po, PLP challenge, mean ± SEM

With CC1(C)CC(O)CC(C)(C)N1[O] [4-hydroxy-2,2,6,6-tetramethyl-piperidine-1-oxyl, reference compound] the “manifestation of clinical signs of EAE, in words” value (EAE) was “has the ability to inhibit the manifestation of clinical signs of EAE”, the “PMA % of cells activated” value (neutrophils) was 80% and the “% Chemiluminescence inhibition” value [1] was 78%. For the same compound, the HOCl % lysis (human red blood cells) was 50%.
In the case of O=C1O[C@H]([C@@H](O)CO)C(O)=C1O [Ascorbic acid, reference compound], the “PMA % of cells activated” value (neutrophils) is reported as 100%, the “% Chemiluminescence inhibition” value [1] is reported as 100% and the HOCl % lysis (human red blood cells) is reported as 100%.
With Nc1cc(=O)[nH]c(=O)n1C1CCc2ccccc21 (centres unmarked) [Compound 1, 6-amino-1-indan-1-yl-1H-pyrimidine-2,4-dione] the Incidence [2, 7] was 6/8, the Mean disease duration [2, 7] was 5.57 ± 1.72 and the Mean maximal score [2, 7] was 4.2. For the same compound, the Mean score [2, 7] was 3.4 ± 0.2, the “Mean day of onset” value [2, 8] was 12.5 ± 0.7 and the “PMA % of cells activated” value (neutrophils) was 0%. For the same compound, the “oxidation potential (cyclic voltametry), in words” value (shortened to “oxidation potential”) [3] was “reducing action, but to a lesser extent than compound 3”, the “% Chemiluminescence inhibition” value [1] was 0% and the DPPNH [4] was 0. The HOCl % lysis (human red blood cells) was 75%.
In the case of Nc1c(N)n(C2CCc3ccccc32)c(=O)[nH]c1=O (centres unmarked) [Compound 3, 5,6-diamino-1-indan-1-yl-1H-pyrimidine-2,4-dione], the “PMA % of cells activated” value (neutrophils) is reported as 30%, the “oxidation potential” value [3] is reported as “strong electron donor activity” and the “% Chemiluminescence inhibition” value [1] is reported as 38%. The melting point was 218 °C (dec.), the DPPNH consumed [4] was 70% and the HOCl % lysis (human red blood cells) was 72%.
In the case of Nc1c(NC2CCc3ccccc32)[nH]c(=O)[nH]c1=O (centres unmarked) [Compound 4, 5-amino-6-(indan-1-ylamino)-1H-pyrimidine-2,4-dione], the “Cyclic voltametry - AW” value ([3]; anodic wave, grades 0 to +++, key not given) is reported as 0, the melting point is reported as greater than 150 °C and the DPPNH consumed [4] is reported as 20%.
With O=c1cc(NC2CCc3ccccc32)[nH]c(=O)[nH]1 (centres unmarked) [Compound 5, 6-(indan-1-ylamino)-1H-pyrimidine-2,4-dione] the Incidence [2, 9] was 18/18, the Mean maximal score [2, 9] was 4.5 and the Incidence [2, 7] was 14/16. For the same compound, the Mean disease duration [2, 7] was 5.64 ± 1.55, the Mean maximal score [2, 7] was 5 and the Mean score [2, 7] was 3.48 ± 0.3. The “Mean day of onset” value [2, 8] was 12.9 ± 1.35, the Incidence [2, 10] was 5/5 and the Mean maximal score [2, 10] was 5. The Mean score [2, 10] was 3.2 ± 0.25, the “Mean day of onset” value ([2]; Table 3b:, single dose daily, po, only mice that develop disease) was 11.8 ± 1.1 and the Mean disease duration ([5]; Table 3b: 12.5 mg/kg) was 6.06 ± 1.7. For the same compound, the Mean score ([5]; Table 3b: 12.5 mg/kg) was 3.8 ± 0.35, the “Mean day of onset” value ([5]; Table 3b: 12.5 mg/kg, only mice that develop disease) was 12 ± 0.68 and the Mean disease duration ([5]; Table 3b: 100 mg/kg) was 4.4 ± 1.7. For the same compound, the “PMA % of cells activated” value (neutrophils) was 80%, the “oxidation potential” value [3] was “reducing action, but to a lesser extent than compound 3” and the “% Chemiluminescence inhibition” value [1] was 75%. The DPPNH [4] was 0 and the HOCl % lysis (human red blood cells) was 100%.
For CN(C)c1cccc2c1CCC2Nc1cc(=O)[nH]c(=O)[nH]1.Cl (centres unmarked) [Compound 6, 6-(4-dimethylamino-indan-1-ylamino)-1H-pyrimidine-2,4-dione HCl], the “effect on EAE, in words” value ([2]; PLP challenge) was “significant beneficial effect on EAE”, the “(# dead)” value [2, 11] was “(4)” and the Incidence [2, 11] was 10/14. The Mortality [6, 12] was 4/10, the Incidence ([6]; 25.0 mg/kg × 2 per day, oral) was 7/10 and the Incidence ([6]; 50.0 mg/kg once a day, oral) was 7/10. For the same compound, the Mortality ([6]; 50.0 mg/kg once a day, oral) was 5/10, the “Mean Duration” value ([6]; 25.0 mg/kg × 2, oral) was 11.1 ± 8.6 days and the “Mean Duration” value ([6]; 50.0 mg/kg once a day, oral) was 11.3 ± 8.5 days. The “% inhibition 3” value ([6]; 25.0 mg/kg × 2, oral) was 40.6%, the “% inhibition 3” value ([6]; 50.0 mg/kg once a day, oral) was 31.3% and the “% inhibition 2” value ([6]; 25.0 mg/kg × 2, oral) was 34.1%. The “% inhibition 2” value ([6]; 50.0 mg/kg once a day, oral) was 26.8%, the “% inhibition 1” value ([6]; 25.0 mg/kg × 2, oral) was 30.0% and the “% inhibition 1” value ([6]; 50.0 mg/kg once a day, oral) was 30.0%. It also gave a GMS value ([6]; 25.0 mg/kg × 2, oral) of 1.9 ± 1.9, a GMS value ([6]; 50.0 mg/kg once a day, oral) of 2.2 ± 1.8 and an MMS value ([6]; 25.0 mg/kg × 2, oral) of 2.7 ± 2.2. The MMS value ([6]; 50.0 mg/kg once a day, oral) was 3.0 ± 2.3, the “% Chemiluminescence inhibition” value [1] was 56% and the HOCl % lysis (human red blood cells) was 44%.
In the case of CN(C)c1ccc2c(c1)C(Nc1cc(=O)[nH]c(=O)[nH]1)CC2.Cl (centres unmarked) [Compound 7, 6-(6-dimethylamino-indan-1-ylamino)-1H-pyrimidine-2,4-dione HCl], the “effect on EAE, in words” value ([2]; PLP challenge) is reported as “significant beneficial effect on EAE”, the “Mean day of onset” value [2, 13] is reported as 14.8 ± 0.94 and the Mean disease duration [2, 13] is reported as 4.1 ± 0.84. For the same compound, the Mean maximal score [2, 13] was 4.3 ± 0.9, the “Mean score (group mean score)” value [2, 13] was 1.6 ± 0.27 and the “(# dead)” value [2, 11] was “(4)”. For the same compound, the Incidence [2, 11] was 11/14, the Mortality [6, 12] was 8/10 and the Incidence ([6]; 25.0 mg/kg × 2 per day, oral) was 8/10. For the same compound, the Incidence ([6]; 50.0 mg/kg once a day, oral) was 7/10, the Mortality ([6]; 50.0 mg/kg once a day, oral) was 7/10 and the “Mean Duration” value ([6]; 25.0 mg/kg × 2, oral) was 13.9 ± 7.5 days. The “Mean Duration” value ([6]; 50.0 mg/kg once a day, oral) was 12.7 ± 8.8 days, the “% inhibition 3” value ([6]; 25.0 mg/kg × 2, oral) was 9.4% and the “% inhibition 3” value ([6]; 50.0 mg/kg once a day, oral) was 15.6%. The “% inhibition 2” value ([6]; 25.0 mg/kg × 2, oral) was 2.4%, the “% inhibition 2” value ([6]; 50.0 mg/kg once a day, oral) was 14.6% and the “% inhibition 1” value ([6]; 25.0 mg/kg × 2, oral) was 20.0%. For the same compound, the “% inhibition 1” value ([6]; 50.0 mg/kg once a day, oral) was 30.0%, the GMS value ([6]; 25.0 mg/kg × 2, oral) was 2.9 ± 1.6 and the GMS value ([6]; 50.0 mg/kg once a day, oral) was 2.7 ± 1.9. The MMS value ([6]; 25.0 mg/kg × 2, oral) was 4.0 ± 2.1, the MMS value ([6]; 50.0 mg/kg once a day, oral) was 3.5 ± 2.4 and the “% Chemiluminescence inhibition” value [1] was 62%. For the same compound, the HOCl % lysis (human red blood cells) was 55%.
In the case of CC1(C)CC(O)CC(C)(C)N1O [N-Hydroxy-tetramethyl-4-piperidinol, reference compound], the “PMA % of cells activated” value (neutrophils) is reported as 60%, the “% Chemiluminescence inhibition” value [1] is reported as 42% and the HOCl % lysis (human red blood cells) is reported as 52%.
For CC1(C)CC(O)CC(C)(C)N1 [Tetramethyl-4-piperidinol, reference compound], the “PMA % of cells activated” value (neutrophils) was 30%, the “% Chemiluminescence inhibition” value [1] was 1.2% and the HOCl % lysis (human red blood cells) was 0%.
